{
  "source": "patent US10183032B2",
  "about": "“Methods for treating bacterial infection” (Ball State Innovation Corporation, priority 2012, dated 2019)",
  "key": {"Staphylococcus aureus": {"test_system": "Staphylococcus aureus", "assay": "Assessment of bactericidal activity (HUVEC media)", "assay_type": "cell-based", "procedure": "FIG. 6B illustrates that neither cytotoxicity nor bactericidal activity is detected. Cultures of Staphylococcus aureus that had been incubated with the vehicle control DMSO or with ML 141 (1 hour, 37° C., 225 rpm) were serially diluted, plated onto blood agar, and incubated (18 hours, 37° C.). Colonies were enumerated and colony forming units (CFU)/ml determined. CFU/ml were not different amongst the groups (p>0.05 by t-test; n=2/treatment). […]"}, "actin stress fibers": {"test_system": "actin stress fibers", "assay": "Actin stress fiber depolymerization in HUVEC during S. aureus infection", "assay_type": "cell-based, human", "settings": "18-20 h pretreatment, S. aureus 1 h", "procedure": "(§1) FIG. 8A is an image depicting ML 141 limiting actin stress fiber depolymerization during infection. Human umbilical vein endothelial cells (HUVEC) were incubated with ML 141 or with the vehicle control polyethylene glycol (PEG) 18-20 h prior to infection with Staphylococcus aureus (1 h). Actin was detected using Alexa Fluor 488 phalloidin. Arrows indicate intact actin stress fibers. Arrowhead indicates cell lacking actin stress fibers. 100 cells/treatment were evaluated from randomly selected fields. Data are presented as the % of cells in which actin stress fibers were not detected. Scale bar is 50 μm.\nas §1, with “8B” for “8A”, “RSM 06” for “ML 141”, “200” for “Arrows indicate intact actin stress fibers. Arrowhead indicates cell lacking actin stress fibers. 100”\nas §1, with “8C” for “8A”, “RSM 16” for “ML 141”, “200” for “Arrows indicate intact actin stress fibers. Arrowhead indicates cell lacking actin stress fibers. 100”\nHUVEC are plated at 1×10^5 cells/ml into 35 mm glass-bottom dishes (MatTek, Ashland, Mass.) are coated with Attachment Factor, are pretreated, and are infected (1.2×10^8 CFU) as described above. […] Alexa 488 is excited by the 488 nanommeter Ar laser line and is detected using a 505-530 nanometer bandpass filter. […] Maximum pixel projections from the Z-stacks are generated and are analyzed for actin morphology."}, "[1]": {"test_system": "Human umbilical vein endothelial cells", "assay": "Transmission electron microscopy of infected HUVEC", "assay_type": "cell-based", "settings": "ML 141 10 μM, S. aureus MOI 30, 2 h", "procedure": "FIG. 9 is an image depicting ML 141 limiting damage to host cells. Human umbilical vein endothelial cells were incubated with the vehicle control polyethylene glycol (PEG) or with ML 141 (10 μM) 18-20 h prior to infection with Staphylococcus aureus at a multiplicity of infection of 30 (2 h). Following infection, extracellular bacteria were removed by incubating with lysostaphin and gentamicin (45 min), antimicrobials with limited mammalian membrane permeability. Antimicrobial-containing media was replenished and incubation extended an additional 24 h. Cells were fixed, stained, and examined by transmission electron microscopy. White arrow indicates mitochondria. Black arrow indicates filopodia. White arrowhead indicates membranous structure surrounding bacteria. Black arrowhead indicates dividing bacteria. Scale bar is 5 μm.\nHUVEC were plated onto glass coverslips at […], pretreated and infected at a multiplicity of infection (MOI) of 30 for 2 h. Extracellular bacteria were removed and cells incubated for an additional 24 h in media containing antibiotics. […]"}},
  "data": [
    {"smiles": "COc1ccc(C2CC(c3ccccc3)=NN2c2ccc(S(N)(=O)=O)cc2)cc1", "note": "(stereo not shown) [ML 141, 4-[3-(4-methoxyphenyl)-5-phenyl-3,4-dihydropyrazol-2-yl]benzenesulfonamide]", "values": [
      {"measurement": "CFU (×10^8 ± SEM), Compound (10 μM)", "setting": "Staphylococcus aureus; 1.2 × 10^8 CFU S. aureus, 1 h in HUVEC media, 10 μM", "value": "8.8 ± 2.9 ×10^8 CFU"},
      {"measurement": "Bactericidal activity (in words)", "setting": "Staphylococcus aureus; S. aureus incubated 1 h with compound, FIG. 6B, Tables 6 and 7", "value": "not detected"},
      {"measurement": "depolymerization of actin stress fibers during infection", "setting": "actin stress fibers", "value": "remained intact"},
      {"measurement": "host cell ultrastructure 24 h post-invasion (organelles)", "setting": "[1]", "value": "remained intact"}
    ]}
  ]
}
